Measured values published in US8329739B2, “Phenylimidazole compounds” (Otsuka Pharmaceutical Factory, Inc., priority 2009, dated 2012).

How the values were obtained:
[1] = biological target: T1, LPL (lipoprotein lipase) (Mus musculus, UniProt P11152); experiment: Confirmation test of LPL activation effect in mouse skeletal muscle cells (C2C12 cells); type: cell-based; conditions: 8 hours exposure, vs control group
T1 construct: endogenous in cells; host or cells: C2C12 cells, differentiated
T1 sequence (P11152 28-474): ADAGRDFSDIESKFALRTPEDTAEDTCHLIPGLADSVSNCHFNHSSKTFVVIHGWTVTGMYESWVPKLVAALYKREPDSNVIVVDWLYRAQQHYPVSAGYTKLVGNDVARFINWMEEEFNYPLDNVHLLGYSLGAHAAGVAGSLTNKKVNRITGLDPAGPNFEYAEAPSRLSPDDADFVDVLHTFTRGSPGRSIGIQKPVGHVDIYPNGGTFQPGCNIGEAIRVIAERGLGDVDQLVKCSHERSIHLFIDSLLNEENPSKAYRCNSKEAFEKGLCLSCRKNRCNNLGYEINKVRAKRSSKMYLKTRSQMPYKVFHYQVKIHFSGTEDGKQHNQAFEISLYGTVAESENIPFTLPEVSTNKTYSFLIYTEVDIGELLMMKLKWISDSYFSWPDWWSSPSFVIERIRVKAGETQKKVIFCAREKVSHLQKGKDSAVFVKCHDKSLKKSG
Method: Human skeletal muscle cells (human skeletal muscle myoblasts) or mouse skeletal muscle cells (C2C12 cells) that were seeded onto plates, cultured, and differentiated were exposed to a 0.3% dimethyl sulfoxide-containing culture medium in which the compound of the present invention was dissolved (concentration: 10 μM or 30 μM). The medium was removed 8 hours after exposure, 10 mM of Tris-HCl buffer (150 mM NaCl, 10 μ/mL; containing heparin sodium) was added to the cells, and the cells were incubated at 37° C. in the presence of 5% CO2 for 10 minutes. LPL activity in the supernatant was measured using an LPL activity assay kit (made by Roar Biomedical Inc.). LPL activity was evaluated based on the increase in fluorescence intensity 10 to 70 minutes after mixing the supernatant with the LPL substrate. The mean value of the increase in fluorescence intensity of the cells exposed to a 0.3% dimethyl sulfoxide-containing culture medium […] was used as mean value of the control group. Note that the compounds of Examples 18, 19, 32, 45 and 57 were tested using human skeletal muscle cells, and other compounds were tested using mouse skeletal muscle cells. The rate of increase (%) was calculated from the measured values of LPL activity in the control group and the experimental group, according to the following formula. Rate of increase in LPL activity (%)=[(mean value of the experimental group)−(mean value of the control group)]/(mean value of the control group)×100

SMILES	Rate of increase in LPL activity ([1]; amount of addition 10 μM) [%]	Rate of increase in LPL activity ([1]; amount of addition 30 μM) [%]	melting point [°C]
COc1cc(-c2c[nH]c(-c3cc(Cl)cc(Cl)c3)n2)ccc1OCc1ccccc1 [Example 15]	79	97	250 to 251
COc1cc(OCc2ccc(C#N)cc2)ccc1-c1c[nH]c(-c2ccc(C(F)(F)F)cc2)n1 [Example 17]	81	143	182 to 184
COc1cc(-c2c[nH]c(-c3ccc(C(C)(C)C)cc3)n2)ccc1OCc1ccccc1 [Example 28]	30	53	138 to 141
COc1cc(-c2c[nH]c(-c3cccs3)n2)ccc1OCc1ccc(Cl)cc1 [Example 31]	10	38	197 to 200
COc1cc(-c2c[nH]c(-c3cc(Cl)cc(Cl)c3)n2)ccc1OCc1ccc(Cl)cc1 [Example 33]	60	84	142 to 145
COc1cc(-c2c[nH]c(-c3ccc(F)cc3)n2)ccc1OCc1ccccc1 [Example 36]	6	113	214 to 216
COC(=O)c1ccc(-c2nc(-c3ccc(OCc4ccccc4)c(OC)c3)c[nH]2)cc1.Cl [Example 38]	35	100	222 to 227
COc1cc(-c2c[nH]c(-c3cccc(F)c3)n2)ccc1OCc1ccccc1.Cl [Example 46]	49	88	212 to 215
COc1cc(-c2c[nH]c(-c3ccc(F)c(F)c3)n2)ccc1OCc1ccccc1.Cl [Example 47]	38	120	226 to 227

Continued, values first:

Rate of increase in LPL activity ([1]; amount of addition 10 μM) [%]	Rate of increase in LPL activity ([1]; amount of addition 30 μM) [%]	melting point [°C]	SMILES
69	197	229 to 230	COc1cc(OCc2ccccc2)ccc1-c1c[nH]c(-c2ccccc2)n1.Cl [Example 7]
46	275	244 to 246	COc1cc(OCc2ccc(Cl)cc2)ccc1-c1c[nH]c(-c2ccccc2)n1.Cl [Example 10]
96	231	239 to 240	COc1cc(OCc2ccc(Br)cc2F)ccc1-c1c[nH]c(-c2ccccc2)n1.Cl [Example 11]
46	234	231 to 232	COc1cc(OCc2ccccc2)ccc1-c1c[nH]c(-c2ccc(C(F)(F)F)cc2)n1 [Example 13]
54	119	236 to 237	COc1cc(-c2c[nH]c(-c3ccc(C)c(F)c3)n2)ccc1OCc1ccccc1.Cl [Example 16]
59	77	188 to 192	COc1cc(OCc2ccccc2)ccc1-c1c[nH]c(-c2ccsc2)n1 [Example 24]
31	51	177 to 179	COc1cc(-c2c[nH]c(-c3ccoc3)n2)ccc1OCc1ccccc1 [Example 26]
11	47	154 to 156	COc1cc(OCc2ccccc2)ccc1-c1c[nH]c(C(C)C)n1 [Example 30]
47	131	217 to 220	COc1cc(OCc2ccccc2)ccc1-c1c[nH]c(-c2ccc(F)cc2)n1.Cl [Example 42]
64	157	174 to 176	COc1cc(OCc2ccc(Cl)cc2)ccc1-c1c[nH]c(-c2ccc(F)cc2)n1 [Example 43]
